Laboratory results: patent US10328092B2, “Methods and compositions for treatment of drug addiction” (The Royal Institution for the Advancement of Learning / …, priority 2015, dated 2019)

Tests used:
[1] = system: primary rat astrocyte cultures; conditions: dopamine 0.1 μm with ascorbic acid, 3 hours
Protocol: For tissue, total RNA from the ventral striatum was extracted and isolated by RNAqueous-4PCR total RNA isolation kit (Ambion, AM1914), according to manufacturer's instructions. For microglia and astrocyte cultures, total RNA was isolated by RNeasy kit (Qiagen, 74136). For all sample types, 0.5 μg of total RNA was used for cDNA synthesis with Quantitect Reverse Transcription Kit (Qiagen, 205313), and quantitative RT-PCR was performed with Fast SYBR-Green Master Mix (Applied Biosystems) detected by StepOne Plus RealTime PCR system (Applied Biosystems). The sequences of qPCR primers used for mRNA quantification in this study were obtained from Integrated DNA Technologies, and are as follows: mouse TNFα forward, […] (SEQ ID NO: 1) [200 nM]; mouse TNFα reverse, […] (SEQ ID NO: 2) [200 nM]; mouse GAPDH forward, […] (SEQ ID NO: 3) [300 nM]; mouse GAPDH reverse, […] (SEQ ID NO: 4) [300 nM]; rat TNFα forward, […] (SEQ ID NO: 1) [600 nM]; rat TNFα reverse, […] […] After 40 cycles, the Ct values were determined. To normalize the samples, ΔCt between TNFα and GADPH or cyclophilin Ct values was calculated. The x-fold difference in expression between the different treatments was then determined by subtraction of the ΔCt values and termed ΔΔCt. Finally, the total change was calculated as 2-ΔΔct and the relative amount compared with control samples was deducted. […]

[2] = system: primary rat microglia cultures; test: TNFα mRNA in primary rat microglia cultures; format: cell-based
Protocol: For tissue, total RNA from the ventral striatum was extracted and isolated by RNAqueous-4PCR total RNA isolation kit (Ambion, AM1914), according to manufacturer's instructions. For microglia and astrocyte cultures, total RNA was isolated by RNeasy kit (Qiagen, 74136). For all sample types, 0.5 μg of total RNA was used for cDNA synthesis with Quantitect Reverse Transcription Kit (Qiagen, 205313), and quantitative RT-PCR was performed with Fast SYBR-Green Master Mix (Applied Biosystems) detected by StepOne Plus RealTime PCR system (Applied Biosystems). The sequences of qPCR primers used for mRNA quantification in this study were obtained from Integrated DNA Technologies, and are as follows: mouse TNFα forward, […] (SEQ ID NO: 1) [200 nM]; mouse TNFα reverse, […] (SEQ ID NO: 2) [200 nM]; mouse GAPDH forward, […] (SEQ ID NO: 3) [300 nM]; mouse GAPDH reverse, […] (SEQ ID NO: 4) [300 nM]; rat TNFα forward, […] (SEQ ID NO: 1) [600 nM]; rat TNFα reverse, […] (SEQ ID NO: 5) [600 nM]; rat cyclophilin forward, […] (SEQ ID NO: 6) [500 nM]; rat cyclophilin reverse, […] (SEQ ID NO: 7) [500 nM]. After 40 cycles, the Ct values were determined. To normalize the samples, ΔCt between TNFα and GADPH or cyclophilin Ct values was calculated. The x-fold difference in expression between the different treatments was then determined by subtraction of the ΔCt values and termed ΔΔCt. Finally, the total change was calculated as 2-ΔΔct and the relative amount compared with control samples was deducted.
Mixed microglia-astrocyte primary cultures were prepared from the striatum of postnatal rats (day 0), essentially as described (Beattie et al., 2002). Briefly, tissue was dissociated by […], and cells were seeded in glia media (MEM containing 5% FBS, 1.5% high sucrose MEM and 0.1% glutamax) on culture flasks (Corning) coated with poly-D lysine (Sigma) and placed in a humidified incubator at 37 C with 5% CO2. Neurons were removed by mechanical disruption and the medium was changed at day 1, and every 5-7 days after. […]

adult microglial cells = test: TNFα mRNA in cultured adult mouse microglia; format: cell-based; conditions: dopamine 0.1 μm, 3 hours; not significant p=0.057
Protocol: (SEQ ID NO: 1) [200 nM]; mouse TNFα reverse, […] (SEQ ID NO: 2) [200 nM]; mouse GAPDH forward, […] (SEQ ID NO: 3) [300 nM]; mouse GAPDH reverse, […] (SEQ ID NO: 4) [300 nM]; rat TNFα forward, […] (SEQ ID NO: 1) [600 nM]; rat TNFα reverse, […] (SEQ ID NO: 5) [600 nM]; rat cyclophilin forward, […] (SEQ ID NO: 6) [500 nM]; rat cyclophilin reverse, […] (SEQ ID NO: 7) [500 nM]. After 40 cycles, the Ct values were determined.
Adult male C57BL/6 mice (8-12 weeks) underwent cardiac perfusion with Hank's Balanced Salt Solution (HBSS) and whole brains were removed. Cortices and striata were dissected, cut in to small pieces and subjected to enzymatic digestion with the Neural Tissue Dissociation Kit (P) (Miltenyi Biotech, US cat no. 130-092-628), as per manufactures instructions. Tissue was homogenised and resuspended in 35% isotonic Percoll, overlayed with HBSS and spun at 400 g for 45 mins for the removal of myelin. Pure populations of microglial cells were obtained through magnetic bead cell sorting using CD11b microbeads (Miltenyi, cat no. 130-093-634). Aliquots from positive and negative bead selected fractions were removed for cell staining to assess cell purity. […] Cells were acquired using a BD FACS Canto II and analyzed using BD FACSDiva software. […]

**Q.** How did the “TNFα production in astrocytes” value [1] turn out when `Cl.NCCc1ccc(O)c(O)c1` [dopamine, dopamine hydrochloride] was run?
**A.** Its value is “does not alter”.

**Q.** And the “TNFα mRNA in microglia cultures” value [2]?
**A.** Its value is “significantly increased”.

**Q.** And the “TNFα mRNA, cultured adult microglia” value (adult microglial cells)?
**A.** Its value is 160 % of control.
